In patent US8785419B2, “Cavity induced allosteric modification of intermolecular interactions and methods of identifying compounds that effect the same” (The Trustees Of The University Of Pennsylvania, priority 1998, dated 2014):

Tested on: T cell activation associated with MHC/antigen/TCR complexes
Experiment: In vitro T cell activation assays
Format: cell-based

O=C(CNC(=O)N1CCCC1)NNC(=O)Nc1ccc2ccccc2c1 [Formula IV]
activity in in vitro T cell activation assays: showed activity
